Numbering of substitutions follows the chain as printed. Read-outs that look alike come from different tables or passages of the source.
How the values were obtained:
rP2X4 = conditions: cited from earlier work
mP2X4 = conditions: cited from earlier work
human P2X4 open channel = tested on: human P2X4 open channel; set-up: method as in Bidula et al. (2022); conditions: ref Bidula et al. (2022); cited from earlier work
[1] = target: T1, rat P2X4 T312I (r4-T312I) (Rattus norvegicus, UniProt P51577, T312I); test: ATP-induced calcium influx (Fluo-4) in 1321N1 cells stably expressing rat P2X4 T312I; assay type: cell-based; conditions: 1321N1 cells, rat P2X4 T312I
T1 construct: expressed in transfected cells; host or cells: 1321N1 astrocytoma cells, stably transfected
T1 sequence (P51577 1-388 T312I): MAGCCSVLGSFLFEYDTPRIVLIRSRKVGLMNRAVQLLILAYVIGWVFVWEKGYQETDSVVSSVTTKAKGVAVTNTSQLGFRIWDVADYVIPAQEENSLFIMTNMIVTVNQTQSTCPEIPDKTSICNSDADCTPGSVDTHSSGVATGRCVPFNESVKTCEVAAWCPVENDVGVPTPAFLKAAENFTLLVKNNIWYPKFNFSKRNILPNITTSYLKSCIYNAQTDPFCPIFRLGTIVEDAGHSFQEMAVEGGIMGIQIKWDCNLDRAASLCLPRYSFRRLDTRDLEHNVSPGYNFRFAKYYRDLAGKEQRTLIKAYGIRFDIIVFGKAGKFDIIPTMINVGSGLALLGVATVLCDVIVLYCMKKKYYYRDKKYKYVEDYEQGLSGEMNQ
Text: Plasmid encoding rat P2X4 (r4-WT) ([Royle et al., 2005]) was a kind gift from Ruth Murrell-Lagnado, whilst that encoding human P2X4 with a C-terminal (His)10 tag has been reported previously ([Young et al., 2008]). Plasmids containing rat P2X4 T312I (r4-T312I) and human P2X4 I312T mutants (h4-I312T) were generated using the QuikChange Lightning site-directed mutagenesis kit (Agilent) according to manufacturer’s instructions. Sequencing of the constructs and of the genomic DNA from stably transfected cells confirmed correct full coding sequences.
(§1) 1321N1 astrocytoma cells were cultured (at 37°C, 5% CO2) in Dulbecco’s modified Eagle’s medium (DMEM/F-12 with Glutamax) supplemented with 10% foetal bovine serum (FBS) and 200 unit/mL of penicillin and streptomycin antibiotics (Fisher Scientific). Stably transfected clones were grown in DMEM/F-12 with Glutamax medium supplemented with G-418 (Geneticin®, Fisher Scientific), 600 μg/mL and 150 μg/mL during selection and maintenance, respectively. FuGene HD Transfection Reagent (Promega) was used according to the manufacturer’s protocol for the generation of stable cell line expressing h4-WT, r4-WT, h4-I312T, and r4-T312I. Each cell line was then tested for P2X4 receptor expression by Western blot and for functionality using the Ca^2+ influx assay.
(§2) Cells were plated the day before assay into poly-lysine-coated 96-well plates at 40–55,000 cells/mL. To load cells with calcium-sensitive fluorescent dye, culture medium was replaced with modified Ringer’s buffer (140 mM NaCl, 10 mM HEPES, 10 mM Glucose, 1 mM MgCl2, 1 mM CaCl2, 2.5 mM KCl, 0.5% BSA, pH = 7.4) containing 2.6 μM FLUO4-AM (Fisher Scientific) and 250 μM probenecid (Sigma), and cells were incubated for 20–30 min. Prior to assay, buffer was replaced with fresh modified Ringer’s buffer containing probenecid but not the dye. […] A Fluoroskan Ascent FL plate reader (Fisher Scientific) equipped with a solution dispenser and an appropriate filter pair (excitation: 485 nm, emission: 538 nm) was used to record 5-s baseline followed by P2X4-mediated calcium influx measurements for 20–25 s after ATP stimulation (final concentration ranging between 0.03 and 100 μM in buffered solution, pH = 7.4). The collected responses were normalized to the first data-point recorded after ATP injection.
(§3) Data processing and data analysis were carried out using Graphpad Prism version 6 for Mac. Figures are presented as Mean ± SEM. Statistical significance of any difference observed between samples was calculated through one-way ANOVA followed by Dunnett’s multiple comparisons test with a single pooled variance (control, unless otherwise specified) or, when comparing only two sets of data, using an unpaired t-test with Welch’s correction. When comparing data obtained from multiple independent experiments (N), each dataset was normalized to the mean value obtained for the vehicle control.

[2] = target: T2, human P2X4 wild type (h4-WT) (Homo sapiens, UniProt Q99571); test: ATP-induced calcium influx (Fluo-4) in 1321N1 cells stably expressing human P2X4 wild type; assay type: cell-based; conditions: 1321N1 cells, human P2X4 WT
T2 construct: expressed in transfected cells; host or cells: 1321N1 astrocytoma cells, stably transfected
T2 sequence (Q99571 1-388): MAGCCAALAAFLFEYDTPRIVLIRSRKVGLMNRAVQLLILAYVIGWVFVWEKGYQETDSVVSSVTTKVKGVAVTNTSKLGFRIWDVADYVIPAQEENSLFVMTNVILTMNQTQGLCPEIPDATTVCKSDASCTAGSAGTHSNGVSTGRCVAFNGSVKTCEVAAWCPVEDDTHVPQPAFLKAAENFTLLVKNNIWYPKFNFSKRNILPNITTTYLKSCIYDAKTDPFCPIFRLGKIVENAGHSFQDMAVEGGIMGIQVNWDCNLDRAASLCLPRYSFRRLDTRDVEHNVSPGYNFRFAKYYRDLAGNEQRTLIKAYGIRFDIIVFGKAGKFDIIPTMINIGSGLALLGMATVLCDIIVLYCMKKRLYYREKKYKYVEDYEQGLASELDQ
Experimental: as §1, with “FuGene HD Transfection Reagent (Promega) was used according to the manufacturer’s protocol for the generation of stable cell line expressing h4-WT, r4-WT, h4-I312T, and r4-T312I.” left out
as §2, with “To load cells with calcium-sensitive fluorescent dye, culture medium was replaced with modified Ringer’s buffer (140 mM NaCl, 10 mM HEPES, 10 mM Glucose, 1 mM MgCl2, 1 mM CaCl2, 2.5 mM KCl, 0.5% BSA, pH = 7.4) containing 2.6 μM FLUO4-AM (Fisher Scientific) and 250 μM probenecid (Sigma), and cells were incubated for 20–30 min.” left out
(§4) Data processing and data analysis were carried out using Graphpad Prism version 6 for Mac. Figures are presented as Mean ± SEM. […] When comparing data obtained from multiple independent experiments (N), each dataset was normalized to the mean value obtained for the vehicle control.

[3] = target: T3, human P2X4 I312T (h4-I312T) (Homo sapiens, UniProt Q99571, I312T); test: ATP-induced calcium influx (Fluo-4) in 1321N1 cells stably expressing human P2X4 I312T; assay type: cell-based; conditions: 1321N1 cells, human P2X4 I312T
T3 construct: expressed in transfected cells; host or cells: 1321N1 astrocytoma cells, stably transfected
T3 sequence (Q99571 1-388 I312T): T2 sequence (Q99571 1-388) with I312T
Experimental: Plasmid encoding rat P2X4 (r4-WT) ([Royle et al., 2005]) was a kind gift from Ruth Murrell-Lagnado, whilst that encoding human P2X4 with a C-terminal (His)10 tag has been reported previously ([Young et al., 2008]).
as §1, with “FuGene HD Transfection Reagent (Promega) was used according to the manufacturer’s protocol for the generation of stable cell line expressing h4-WT, r4-WT, h4-I312T, and r4-T312I.” left out
as §2, with “To load cells with calcium-sensitive fluorescent dye, culture medium was replaced with modified Ringer’s buffer (140 mM NaCl, 10 mM HEPES, 10 mM Glucose, 1 mM MgCl2, 1 mM CaCl2, 2.5 mM KCl, 0.5% BSA, pH = 7.4) containing 2.6 μM FLUO4-AM (Fisher Scientific) and 250 μM probenecid (Sigma), and cells were incubated for 20–30 min.” left out
as §4

[4] = target: T4, rat P2X4 wild type (r4-WT) (Rattus norvegicus, UniProt P51577); test: ATP-induced calcium influx (Fluo-4) in 1321N1 cells stably expressing rat P2X4 wild type; assay type: cell-based; conditions: 1321N1 cells, rat P2X4 WT
T4 construct: expressed in transfected cells; host or cells: 1321N1 astrocytoma cells, stably transfected
T4 sequence (P51577 1-388): T1 sequence (P51577 1-388 T312I) with I312T
Experimental: as §1, §2, §3

hP2X4 = conditions: read-out: hP2X4 IC50, cited from earlier work
injury-induced allodynia = tested on: injury-induced allodynia; set-up: method as in Matsumura et al., 2016; Ushioda et al., 2020; conditions: ref Matsumura et al., 2016; Ushioda et al., 2020; cited from earlier work
P2X4 = tested on: P2X4; set-up: method as in Hernandez-Olmos et al., 2012; conditions: ref Hernandez-Olmos et al., 2012; cited from earlier work
[5] = ref Hernandez-Olmos et al., 2012; cited from earlier work
[6] = approximate value for the series, ref Matsumura et al., 2016, Ushioda et al., 2020, read-out: IC50 at mouse P2X4
[7] = ref Hernandez-Olmost et al. (2012)

O=C1CN=C(c2cccc(Br)c2)c2oc3ccccc3c2N1 [5-BDBD]
IC50 (rP2X4; ref Abdelrahman et al. (2017)): 3470 nM
IC50 (rP2X4; ref Coddou et al. (2019)): 750 nM
IC50 (mP2X4; ref Abdelrahman et al. (2017), read-out: mP2X4 IC50): 2040 nM
capability of blocking the open channel (human P2X4 open channel): not

Nc1ncnc2c1ncn2[C@@H]1O[C@H](COP(=O)(O)OP(=O)(O)OP(=O)(O)O)[C@@H](O)[C@H]1O [ATP]
ATP pEC50 (± SEM) [1]: 6.136 (± 0.0645)
EC50 [1]: 730 nM
Hill coefficient (ATP concentration-response) [1]: 2.475
ATP pEC50 (± SEM) [2]: 5.901 (± 0.0577)
EC50 [2]: 1260 nM
Hill coefficient (ATP concentration-response) [2]: 1.098
ATP pEC50 (± SEM) [3]: 6.112 (± 0.028)
EC50 [3]: 770 nM
Hill coefficient (ATP concentration-response) [3]: 2.057
ATP pEC50 (± SEM) [4]: 5.770 (± 0.0507)
EC50 [4]: 1700 nM
Hill coefficient (ATP concentration-response) [4]: 1.441

NS(=O)(=O)c1cc(NC(=O)Cc2ccccc2)ccc1Oc1cccc(Cl)c1 [BAY-1797, N-[4-(3-Chlorophenoxy)-3-sulfamoylphenyl]-2-phenylacetamide]
IC50 (rP2X4; ref Werner et al. (2019)): 100 nM
IC50 (mP2X4; ref Werner et al. (2019), read-out: mP2X4 IC50): 200 nM

O=C(C1CC1)N1CCc2cc(Br)c(S(=O)(=O)Nc3ccc(Cl)c(C(F)(F)F)c3)cc21 [Indophagolin]
IC50 (hP2X4; ref Carnero Corrales et al. (2021)): 140 nM

CC(C)c1ccc(NC(=S)NC(=O)C23CC4CC(CC(C4)C2)C3)c(Br)c1 [Mahmood-4n]
IC50 (hP2X4; ref Mahmood et al. (2022a)): 40 nM

O=C(NC(=S)Nc1c(Br)ccc(C(F)(F)F)c1Br)c1ccc2c(c1)OCO2 [Mahmood-9g]
IC50 (hP2X4; ref Mahmood et al. (2022b)): 55 nM

CC(C)c1ccc(NC(=S)NC(=O)c2ccc3c(c2)OCO3)c(Br)c1 [Mahmood-9o]
IC50 (hP2X4; ref Mahmood et al. (2022b)): 39 nM

O=C1CC(=O)N(c2cccc(-c3noc(=S)[nH]3)c2)c2ccc3ccccc3c2N1 [NP-1815-PX]
effect in in vivo rodent model of injury-induced allodynia (injury-induced allodynia): anti-allodynic effect
IC50 (mP2X4; [6]): ~250 nM

O=C1CC(=O)N(c2ccc(NS(=O)(=O)Cc3ccccc3Cl)cc2)c2ccc3ccccc3c2N1 [NP-A]
effect in in vivo rodent model of injury-induced allodynia (injury-induced allodynia): anti-allodynic effect
IC50 (mP2X4; [6]): ~250 nM

O=C1CC(=O)N(c2ccc(NC(=O)c3ccccc3I)cc2)c2ccc3ccccc3c2N1 [NP-B]
IC50 (hP2X4; ref Matsumura et al., 2016, Ushioda et al., 2020): 430 nM
effect in in vivo rodent model of injury-induced allodynia (injury-induced allodynia): anti-allodynic effect
IC50 (mP2X4; [6]): ~250 nM

O=C(OCc1ccccc1)N1c2ccccc2Oc2ccccc21 [PSB-12054]
IC50 (rP2X4; [7]): 2100 nM
potency as P2X4 antagonist (in words) (P2X4): low micromolar range
IC50 (hP2X4; [7]): 190 nM
solubility (in words) [5]: partial solubility
IC50 (mP2X4; ref Hernandez-Olmost et al. (2012), read-out: mP2X4 IC50): 1800 nM

Cc1ccc(S(=O)(=O)N2c3ccccc3Oc3ccccc32)cc1 [PSB-12062]
potency as P2X4 antagonist (in words) (P2X4): low micromolar range

Cc1c(-c2cccc(-c3nnn[nH]3)c2)c2[nH]c3ccccc3c2[nH]c1=O [Sunovion-A]
IC50 (hP2X4; ref Newcom and Spear (2013)): < 100 nM

From PMC9947563, “Identification of the molecular determinants of antagonist potency in the allosteric binding pocket of human P2X4” (Frontiers in Pharmacology, 2023)
